The test system of one test is Java plums. The experiment in a line: Weight of dipped Java plums over time (moisture retention and freshness). The procedure: Starting with two sets of java plums, each set containing eight plums, a control set is dipped in 95% ethanol and placed at room temperature and 50% Relative humidity. A second set, the treatment set, is dipped in a zein composition consisting of 100 mL 95% Ethanol+6 g zein powder. […] were weighed on days 1, 2, 3, 4, 6, 7. Weights were taken to approximate moisture retention and freshness. After 7 days, average weight loss of control (no zein applied) Java plums was 28.5% compared to 23.6% weight loss for zein treatment. Java plums treated with zein retained 17.2% more moisture compared to untreated plums.

In the next test the test system is blueberries. The experiment in a line: Weight of dipped blueberries over time (moisture retention and freshness).
The mark [1] stands for this setting: single fruit samples, zein dip (6 g in 100 mL 95% ethanol), 23-25° C., Day 1.

The values below come from patent US20260240179A1, “EDIBLE COMPOSITIONS AND METHODS FOR THE PRESERVATION OF FRUITS AND VEGETABLES” (ONYX LOTUS, LLC, priority 2023, published 2026).

“And” between values parts separate entries of the source, which are not always exact repeats. Equal entries are not always repeated.

For zein, the average weight loss is 23.6% with Java plums (Java plums, after 7 days, dipped in 100 mL 95% ethanol+6 g zein powder, control 28.5%) and 37.2% in the test on blueberries (blueberries, after nine days, dipped in 100 mL 95% ethanol+6 g zein powder, control 43.1%). The “more moisture retained compared to untreated plums” value in the test with Java plums (Java plums, after 7 days, zein dip) turned out to be 17.2%. For the same substance, in the test with Java plums (setting [1]), the “Weight of Java plums, Day 1” value was 15.82 grams and 15.19 grams and 11.63 grams and 11.83 grams and 16.16 grams and 14.65 grams and 14.35 grams and 12.88 grams. Also, the “Weight of Java plums, Day 2” value with Java plums (zein dip, 23-25° C., Day 2) was 15.03 grams and 14.42 grams and 10.79 grams and 11.19 grams and 13.65 grams and 13.13 grams and 13.63 grams and 12.24 grams. The “Weight of Java plums, Day 3” value in the test on Java plums (zein dip, 23-25° C., Day 3) is 14.46 grams and 13.88 grams and 10.33 grams and 10.72 grams and 12.96 grams and 19.13 grams and 11.78 grams. Besides, in the test on Java plums (zein dip, 23-25° C., Day 4), the “Weight of Java plums, Day 4” value is 13.72 grams and 13.16 grams and 9.72 grams and 9.12 grams and 12.36 grams and 12.67 grams and 11.18 grams. The “Weight of Java plums, Day 6” value in the test with Java plums (zein dip, 23-25° C., Day 6) was 12.53 grams and 12.02 grams and 8.73 grams and 11.33 grams and 11.39 grams and 10.2 grams. Moreover, the “Weight of Java plums, Day 7” value in the test with Java plums (zein dip, 23-25° C., Day 7) was 12.15 grams and 11.66 grams and 8.4 grams and 11 grams and 11.03 grams and 9.87 grams. Besides, the “more moisture retained compared to untreated berries” value in the test on blueberries (blueberries, after nine days, zein dip) amounted to 13.7%. Moreover, the “Weight of blueberries, Day 1” value in the test on blueberries (setting [1]) is 1.6 grams and 1.79 grams and 1.62 grams and 1.71 grams and 1.7 grams. Also, the “Weight of blueberries, Day 2” value with blueberries (zein dip, 23-25° C., Day 2) is 1.52 grams and 1.7 grams and 1.53 grams and 1.63 grams. Moreover, in the test with blueberries (zein dip, 23-25° C., Day 3), the “Weight of blueberries, Day 3” value is 1.44 grams and 1.6 grams and 1.54 grams and 1.55 grams. The “Weight of blueberries, Day 5” value with blueberries (zein dip, 23-25° C., Day 5) was 1.3 grams and 1.65 grams and 1.99 grams and 1.63 grams. In addition, the “Weight of blueberries, Day 6” value in the test on blueberries (zein dip, 23-25° C., Day 6) was 1.23 grams and 1.22 grams and 1.37 grams and 1.32 grams and 1.36 grams. Also, in the test on blueberries (zein dip, 23-25° C., Day 7), the “Weight of blueberries, Day 7” value was 1.16 grams and 1.31 grams and 1.26 grams and 1.3 grams. In addition, the “Weight of blueberries, Day 8” value in the test with blueberries (zein dip, 23-25° C., Day 8) is 1.09 grams and 1.1 grams and 1.26 grams and 1.19 grams. Besides, the “Weight of blueberries, Day 11” value in the test with blueberries (zein dip, 23-25° C., Day 11) is 1.06 grams and 1.2 grams and 1.15 grams and 1.19 grams. The “Weight of blueberries, Day 12” value with blueberries (zein dip, 23-25° C., Day 12) was 0.97 grams and 0.98 grams and 1.12 grams and 1.08 grams and 1.13 grams. Further, in the test on blueberries (zein dip, 23-25° C., Day 13), the “Weight of blueberries, Day 13” value is 0.85 grams and 0.86 grams and 1.01 grams and 0.97 grams. The “Weight of blueberries, Day 14” value in the test with blueberries (zein dip, 23-25° C., Day 14) was 0.82 grams and 0.832 grams and 0.98 grams and 0.94 grams.
